Source: PubChem BioAssay AID2060888 (Molecular Pharmacology Branch, DTP, NCI, 2025)

System: 695427-040-R-J1-PDC complex spheroid viability
Assay: Anticancer human tumor 695427-040-R-J1-PDC patient-derived colon adenocarcinoma cell line growth inhibition [RAS]
Conditions: for IC50: curve of first compound; for viability, T/C: stronger effect = lower value
Outline: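 Multi-cell-type spheroids: tumor cells plus HUVEC endothelial cells and mesenchymal stem cells. RAS-pathway inhibitors were combined with targeted agents, each dosed in half-log steps down from clinical Cmax, or from 10 microM when Cmax was unknown.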

[1] = second compound 0.0316 µM, first compound 0.0316 µM
[2] = second compound 0.0316 µM, first compound 0.1 µM
[3] = second compound 0.0316 µM, first compound 0.316 µM
[4] = second compound 0.0316 µM, first compound 1 µM
[5] = second compound 0.1 µM, first compound 0.0316 µM
[6] = second compound 0.1 µM, first compound 0.1 µM
[7] = second compound 0.1 µM, first compound 0.316 µM
[8] = second compound 0.1 µM, first compound 1 µM
[9] = second compound 0.316 µM, first compound 0.0316 µM
[10] = second compound 0.316 µM, first compound 0.1 µM
[11] = second compound 0.316 µM, first compound 0.316 µM
[12] = second compound 0.316 µM, first compound 1 µM
[13] = second compound 1 µM, first compound 0.0316 µM
[14] = second compound 1 µM, first compound 0.1 µM
[15] = second compound 1 µM, first compound 0.316 µM
[16] = second compound 1 µM, first compound 1 µM
[17] = second compound 3.16 µM, first compound 0.0316 µM
[18] = second compound 3.16 µM, first compound 0.1 µM
[19] = second compound 3.16 µM, first compound 0.316 µM
[20] = second compound 3.16 µM, first compound 1 µM
[21] = second compound 10 µM, first compound 0.0316 µM
[22] = second compound 10 µM, first compound 0.1 µM
[23] = second compound 10 µM, first compound 0.316 µM
[24] = second compound 10 µM, first compound 1 µM
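Also: viability read after seven days of drug exposure.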
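For viability, T/C in this document: 100% = DMSO vehicle control viability.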

## CC1(C)CCC(Nc2ncc(C(F)(F)F)c(-c3c[nH]c4c(P(C)(C)=O)c(C#N)ccc34)n2)CN1 (stereo unspecified) + CCn1c(-c2cc(N3CCN(C)CC3)cnc2C(C)OC)c2c3cc(ccc31)-c1csc(n1)CC(NC(=O)C1CC1C)C(=O)N1CCCC(N1)C(=O)OCC(C)(C)C2
Second compound 0.000949 µM
  IC50: > 300 nM
Second compound 0.003 µM
  IC50: > 300 nM
Second compound 0.00949 µM
  IC50: > 300 nM
Second compound 0.03 µM
  IC50: > 300 nM
Second compound 0.0949 µM
  IC50: < 0.949 nM
Second compound 0.3 µM
  IC50: < 0.949 nM
Second compound 0.000949 µM, first compound 0.000949 µM
  viability, T/C: 98%
Second compound 0.000949 µM, first compound 0.003 µM
  viability, T/C: 101%
Second compound 0.000949 µM, first compound 0.00949 µM
  viability, T/C: 84%
Second compound 0.000949 µM, first compound 0.03 µM
  viability, T/C: 92.2%
Second compound 0.000949 µM, first compound 0.0949 µM
  viability, T/C: 91.8%
Second compound 0.000949 µM, first compound 0.3 µM
  viability, T/C: 77.6%
Second compound 0.003 µM, first compound 0.000949 µM
  viability, T/C: 94.8%
Second compound 0.003 µM, first compound 0.003 µM
  viability, T/C: 85.5%
Second compound 0.003 µM, first compound 0.00949 µM
  viability, T/C: 77.9%
Second compound 0.003 µM, first compound 0.03 µM
  viability, T/C: 77.2%
Second compound 0.003 µM, first compound 0.0949 µM
  viability, T/C: 80.6%
Second compound 0.003 µM, first compound 0.3 µM
  viability, T/C: 69.3%
Second compound 0.00949 µM, first compound 0.000949 µM
  viability, T/C: 71.4%
Second compound 0.00949 µM, first compound 0.003 µM
  viability, T/C: 65.6%
Second compound 0.00949 µM, first compound 0.00949 µM
  viability, T/C: 74.2%
Second compound 0.00949 µM, first compound 0.03 µM
  viability, T/C: 61.7%
Second compound 0.00949 µM, first compound 0.0949 µM
  viability, T/C: 62.8%
Second compound 0.00949 µM, first compound 0.3 µM
  viability, T/C: 63.6%
Second compound 0.03 µM, first compound 0.000949 µM
  viability, T/C: 67.4%
Second compound 0.03 µM, first compound 0.003 µM
  viability, T/C: 60.7%
Second compound 0.03 µM, first compound 0.00949 µM
  viability, T/C: 61%
Second compound 0.03 µM, first compound 0.03 µM
  viability, T/C: 58.5%
Second compound 0.03 µM, first compound 0.0949 µM
  viability, T/C: 55.4%
Second compound 0.03 µM, first compound 0.3 µM
  viability, T/C: 51.4%
Second compound 0.0949 µM, first compound 0.000949 µM
  viability, T/C: 47.5%
Second compound 0.0949 µM, first compound 0.003 µM
  viability, T/C: 44.3%
Second compound 0.0949 µM, first compound 0.00949 µM
  viability, T/C: 47.9%
Second compound 0.0949 µM, first compound 0.03 µM
  viability, T/C: 47.4%
Second compound 0.0949 µM, first compound 0.0949 µM
  viability, T/C: 45.6%
Second compound 0.0949 µM, first compound 0.3 µM
  viability, T/C: 40.3%
Second compound 0.3 µM, first compound 0.000949 µM
  viability, T/C: 34.7%
Second compound 0.3 µM, first compound 0.003 µM
  viability, T/C: 41.8%
Second compound 0.3 µM, first compound 0.00949 µM
  viability, T/C: 31.7%
Second compound 0.3 µM, first compound 0.03 µM
  viability, T/C: 36.4%
Second compound 0.3 µM, first compound 0.0949 µM
  viability, T/C: 36.6%
Second compound 0.3 µM, first compound 0.3 µM
  viability, T/C: 33.4%

## C[C@@H](NC(=O)c1ncnc(N)c1Cl)c1ncc(C(=O)Nc2cc(C(F)(F)F)c(Cl)cn2)s1 + C#Cc1c(F)ccc2cc(O)cc(-c3ncc4c(N5CC6CCC(C5)N6)nc(OCC56CCCN5CC(F)C6)nc4c3F)c12
Second compound 0.0316 µM
  IC50: > 10000 nM
Second compound 0.1 µM
  IC50: > 10000 nM
Second compound 0.316 µM
  IC50: > 10000 nM
Second compound 1 µM
  IC50: > 10000 nM
Second compound 3.16 µM
  IC50: > 10000 nM
Second compound 10 µM
  IC50: < 31.6 nM
[1]
  viability, T/C: 99.8%
[2]
  viability, T/C: 117%
[3]
  viability, T/C: 108%
[4]
  viability, T/C: 102%
Second compound 0.0316 µM, first compound 3.16 µM
  viability, T/C: 101%
Second compound 0.0316 µM, first compound 10 µM
  viability, T/C: 80.2%
[5]
  viability, T/C: 109%
[6]
  viability, T/C: 106%
[7]
  viability, T/C: 101%
[8]
  viability, T/C: 100%
Second compound 0.1 µM, first compound 3.16 µM
  viability, T/C: 94.3%
Second compound 0.1 µM, first compound 10 µM
  viability, T/C: 70.9%
[9]
  viability, T/C: 99.8%
[10]
  viability, T/C: 95.1%
[11]
  viability, T/C: 101%
[12]
  viability, T/C: 93%
Second compound 0.316 µM, first compound 3.16 µM
  viability, T/C: 81.6%
Second compound 0.316 µM, first compound 10 µM
  viability, T/C: 70.3%
[13]
  viability, T/C: 87.9%
[14]
  viability, T/C: 83.2%
[15]
  viability, T/C: 88.5%
[16]
  viability, T/C: 84.1%
Second compound 1 µM, first compound 3.16 µM
  viability, T/C: 76.3%
Second compound 1 µM, first compound 10 µM
  viability, T/C: 57.2%
[17]
  viability, T/C: 59.2%
[18]
  viability, T/C: 60.5%
[19]
  viability, T/C: 65.9%
[20]
  viability, T/C: 63.9%
Second compound 3.16 µM, first compound 3.16 µM
  viability, T/C: 56.9%
Second compound 3.16 µM, first compound 10 µM
  viability, T/C: 42.5%
[21]
  viability, T/C: 35.1%
[22]
  viability, T/C: 34.4%
[23]
  viability, T/C: 42.2%
[24]
  viability, T/C: 37.9%
Second compound 10 µM, first compound 3.16 µM
  viability, T/C: 41.3%
Second compound 10 µM, first compound 10 µM
  viability, T/C: 27.8%

## C=CC(=O)Nc1cc(Nc2nccc(-c3cn(C)c4ccccc34)n2)c(OC)cc1N(C)CCN(C)C + C#Cc1c(F)ccc2cc(O)cc(-c3ncc4c(N5CC6CCC(C5)N6)nc(OCC56CCCN5CC(F)C6)nc4c3F)c12
Second compound 0.0316 µM
  IC50: 346 nM
Second compound 0.1 µM
  IC50: 402 nM
Second compound 0.316 µM
  IC50: 240 nM
Second compound 1 µM
  IC50: 165 nM
Second compound 3.16 µM
  IC50: 50.7 nM
Second compound 10 µM
  IC50: < 3.16 nM
Second compound 0.0316 µM, first compound 0.00316 µM
  viability, T/C: 99.4%
Second compound 0.0316 µM, first compound 0.01 µM
  viability, T/C: 92.1%
[1]
  viability, T/C: 92.3%
[2]
  viability, T/C: 69.6%
[3]
  viability, T/C: 53.1%
[4]
  viability, T/C: 31.5%
Second compound 0.1 µM, first compound 0.00316 µM
  viability, T/C: 93.1%
Second compound 0.1 µM, first compound 0.01 µM
  viability, T/C: 100%
[5]
  viability, T/C: 80.9%
[6]
  viability, T/C: 69.9%
[7]
  viability, T/C: 58.6%
[8]
  viability, T/C: 29.2%
Second compound 0.316 µM, first compound 0.00316 µM
  viability, T/C: 95.8%
Second compound 0.316 µM, first compound 0.01 µM
  viability, T/C: 81%
[9]
  viability, T/C: 77.8%
[10]
  viability, T/C: 61.5%
[11]
  viability, T/C: 48.1%
[12]
  viability, T/C: 27.6%
Second compound 1 µM, first compound 0.00316 µM
  viability, T/C: 72.6%
Second compound 1 µM, first compound 0.01 µM
  viability, T/C: 79.7%
[13]
  viability, T/C: 68.9%
[14]
  viability, T/C: 59%
[15]
  viability, T/C: 38.7%
[16]
  viability, T/C: 23%
Second compound 3.16 µM, first compound 0.00316 µM
  viability, T/C: 57.7%
Second compound 3.16 µM, first compound 0.01 µM
  viability, T/C: 55.1%
[17]
  viability, T/C: 56.6%
[18]
  viability, T/C: 42.6%
[19]
  viability, T/C: 30.6%
[20]
  viability, T/C: 20%
Second compound 10 µM, first compound 0.00316 µM
  viability, T/C: 39.4%
Second compound 10 µM, first compound 0.01 µM
  viability, T/C: 41.5%
[21]
  viability, T/C: 37.3%
[22]
  viability, T/C: 32.4%
[23]
  viability, T/C: 25.8%
[24]
  viability, T/C: 15.7%
